According to patent publication US7253177B2, “Synthesis and antimalarial activity of pyrrolo[3,2-f]quinazoline-1,3-diamine derivatives” (United States of America as Represented by the Secretary of …, priority 2004, dated 2007):
Several values for one entry are separate records, joined by “and”; a condition that tells them apart may be missing. Equal entries are not always repeated.

What was measured:
P. falciparum FVO = experiment: Antimalarial activity against P. falciparum in Aotus monkey; format: in vivo, Plasmodium falciparum; conditions: 1 mg/kg once a day x three days, cured = parasitemia free for 100 days post treatment
Experimental: (e). Toxicity Study in Aotus monkey: Protocol: Two malaria double cured Aotus weighing 1027-695 grams respectively received single dose of 3 mg/kg orally of the two compounds 2b and 3e. The monkeys were weighed and pre-bleed for CBC and Chemistry (ALT, BUN, Creatinine) determination, and again three, seven and 15 days post treatment. Signs of toxicity such as anorexia, vomiting, diarrhea or behavior changes were recorded. […] (f). Antimalarial Activity against P. falciparum in Aotus monkey: Protocol: Six (6) malaria naive Aotus lemurinus lemurinus (weigh 787-978 grms) were divided into two groups of two Aotus each plus two controls (MN13177 male and MN 13153 male) and infected with 5×10^6 P. falciparum FVO malaria parasites with 1 ml of an appropriate dilution in RPMI media intravenously on the saphenous vein. When their parasitemia reached 5×10^4 parasites/ul, treatment was started. Giemsa-stained thick blood smears were prepared daily with a prick in the ear marginal vein and parasites enumerated by the Earle and Perez method. Group 1 Aotus received 3e at 1 mg/kg once a day×three days. Group 2 Aotus received 2b at 1 mg/kg once a day×three days. The monkeys were weight and pre-bled for CBC and Chemistry (ALT, BUN, Creatinine) determination, and on day 4 post-treatmetne (PT). Bleedings for Pk determinations were carried out on day 1 PT at time 0, 1 hr, 7:30 hr and 24 hr PT. […]

P. vivax AMRU-1 strain = experiment: Antimalarial activity against P. vivax in Aotus monkey; format: in vivo, Plasmodium vivax; conditions: for # Monkey Cured/# Monkey Used, P. vivax: cured = parasitemia free for 100 days post treatment; for outcome against P. vivax at 1 and 3 mg/kg/day x3: po, antifolate-resistant clone with four DHFR mutations
Experimental: (e). Toxicity Study in Aotus monkey: Protocol: Two malaria double cured Aotus weighing 1027-695 grams respectively received single dose of 3 mg/kg orally of the two compounds 2b and 3e. The monkeys were weighed and pre-bleed for CBC and Chemistry (ALT, BUN, Creatinine) determination, and again three, seven and 15 days post treatment. Signs of toxicity such as anorexia, vomiting, diarrhea or behavior changes were recorded. […] (f). Antimalarial Activity against P. falciparum in Aotus monkey: Protocol: Six (6) malaria naive Aotus lemurinus lemurinus (weigh 787-978 grms) were divided into two groups of two Aotus each plus two controls (MN13177 male and MN 13153 male) and infected with 5×10^6 P. falciparum FVO malaria parasites with 1 ml of an appropriate dilution in RPMI media intravenously on the saphenous vein. When their parasitemia reached 5×10^4 parasites/ul, treatment was started. Giemsa-stained thick blood smears were prepared daily with a prick in the ear marginal vein and parasites enumerated by the Earle and Perez method. Group 1 Aotus received 3e at 1 mg/kg once a day×three days. Group 2 Aotus received 2b at 1 mg/kg once a day×three days. The monkeys were weight and pre-bled for CBC and Chemistry (ALT, BUN, Creatinine) determination, and on day 4 post-treatmetne (PT). Bleedings for Pk determinations were carried out on day 1 PT at time 0, 1 hr, 7:30 hr and 24 hr PT. Group 1 (receiving 3e) animals cleared the parasitemias on day 3 post treatment (PT) and remained negative up to 100 days PT. In group 2 (receiving 2b), one animal cleared on day 3 PT and the other one on day 4 PT remaining negative up to 100 days PT. […] (g). Antimalarial Activity against P. vivax in Aotus monkey: Protocol: Fourteen (14) P. falciparum cured Aotus l. lemurinus monkeys (male and female) (weight 700-925 grms) were infected intravenously with 5×10^6 parasites of the P. vivax AMRU-1 strain diluted in RPMI media obtained from a donor and divided into two larger groups of 6 monkeys each (Group I and Group II) (2 monkeys per dose level), that received 3e and 6 monkeys (2 monkeys per dose level) that received 2b daily at 0.5, 1.0 and 3 mg/kg/day for a total of 3 days. Two monkeys were left has untreated controls. Treatment started when parasitemia reached 5,000 parasites×cc/mm on day 6 PI. Daily food intake was documented. Daily Giemsa-stained thick blood smears were prepared from a prick in the marginal ear vein and parasites enumerated by the Earle and Perez method. The animals were weighed at weekly intervals. Blood samples for Pk determination were collected at the following time points as follows: Day 0: CBC and chemistry panel (ALT. Creatinine and BUN); Day 4: CBC and chemistry Panel. CBC and chemistry panels were done the day prior to first dose and 24 hours after last dose and at weekly intervals thereafter. […] The other monkeys received 1 and 3 mg/kg of 3e remained negative until day 100 PT. In Group II, all monkeys except for one that received 3 mg/kg of 2b failed treatment and were retreated on day 3 PT with 3e at either 0.25, 0.5 or 1 mg/kg for three days. In the monkeys that received re-treatment at 0.25 mg/kg, one cleared on day 4 PT but needed to be treated with Mefloquine on day 8 PT due to a low platelet count. The other animals that had not been cleared by day 6 PT were treated with Mefloquine. […] P. vivax is known to be very drug resistant to antifolates. (h). Presumptive Causal Prophylactic Test against P. cynomolgi in Rhesus monkey: Protocol: […]

Structure (SMILES) | # Monkey Cured/# Monkey Used, P. falciparum (P. falciparum FVO) | activity against P. vivax at 0.5 and 1 mg/kg x3 (P. vivax AMRU-1 strain) | # Monkey Cured/# Monkey Used, P. vivax (P. vivax AMRU-1 strain; 0.5 mg/kg/day x 3 days) | # Monkey Cured/# Monkey Used, P. vivax (P. vivax AMRU-1 strain; 1 mg/kg/day x 3 days) | # Monkey Cured/# Monkey Used, P. vivax (P. vivax AMRU-1 strain; 3 mg/kg/day x 3 days, 3 mg/kg/day) | outcome against P. vivax at 1 and 3 mg/kg/day x3 (P. vivax AMRU-1 strain) | outcome against P. vivax at 0.5 mg/kg (P. vivax AMRU-1 strain; 0.5 mg/kg/day x 3 days, two monkeys) | # Monkey Cured/# Monkey Used, P. vivax (P. vivax AMRU-1 strain; 3 mg/kg/day x 3 days) | remained negative until day PT (P. vivax AMRU-1 strain; P. vivax, 1 and 3 mg/kg x 3 days) [days]
CCOC(=O)Nc1nc(NC(=O)OCC)c2c(ccc3c2ccn3Cc2ccccc2C(F)(F)F)n1 [Compound 2b] | 2/2 | not active | 0/2 | 0/2 | one out of two and 1/2 | less active | – | – | –
CC(=O)N(C(C)=O)c1nc(N(C(C)=O)C(C)=O)c2c(ccc3c2ccn3Cc2ccccc2C(F)(F)F)n1 [Compound 3e, 1,3-Bis(diacetylamino)-7-(2-trifluoromethyl)benzyl-7H-pyrrolo[3,2-f]quinazoline] | 2/2 | – | 0/2 | 2/2 | – | cured and 4/4 | suppressed the parasitemia but needed re-treatment on day 10 PT | 2/2 | 100
